Data as given in US7732185B2, “Plasmid having response to dioxins, transgenic cell for measuring dioxins, dioxins sensing method and biosensor using the same” (priority 2004, dated 2010).

How the values were obtained:
Format in all cases: cell-based, mouse
[1] = test system: aryl hydrocarbon receptor (AhR); test: DRESSA method: SEAP protein activity in conditioned medium of HeDS cells; details: for induction of SEAP protein activity compared with DMSO control: HeDS cells stimulated by 1 μM
Description: Each cell clump is treated with trypsin to be removed, transferred to a 96-well culture plate every two wells, and cultured for one week continuously (S5). After the cells become confluent, the culture medium of each well is exchanged with 100 μl of α-MEM containing 1% FBS, and the cells are cultured for 24 hours in the presence or absence of 10 pM TCDD. Then, using 5 μl of the conditioned medium, a predetermined SEAP assay is performed to establish HeDS cells that react with a low concentration of dioxin with the highest sensitivity, and the cells are used for a dioxins sensing bioassay (S6). In this specification, the bioassay method is referred to as DRE-based Sensing of dioxin via Secreted Alkaline phosphatase (hereinafter, abbreviated as the DRESSA method).
Further, AhR14 forms a complex with Arnt15 that is a coactivator, enters the nuclear, and is combined with MMTV-DRE11 to activate. As a result, transcription of downstream SEAP gene 12 is promoted, messenger RNA 16 is produced and translated to protein 18 with ribosome 17, and the protein is promptly secreted outside the cell as a SEAP protein. Accordingly, by measuring the activity of the SEAP protein in the conditioned medium, it is possible to determine a level of dioxins to which the cells are exposed. First, HeDS cells with a concentration of 2×10^4/well are seeded in each well of a 96-well culture plate. As a culture medium, 100 μl of A-MEM containing […] is filled into each well (S1). After the cells are cultured for 24 hours to be fixed to the bottom of each well, the culture medium is exchanged, and 1 μl of a liquid sample containing TCDD is added (S2). After culturing for 24 hours, the conditioned medium is sampled every 5 μl (S3), and the SEAP protein activity is measured by procedures as described below.
(§1) The SEAP protein activity in the conditioned medium is determined as described below. To 5 μl of the conditioned medium is added 15 μl of buffer, the resultant is incubated at 65° C. for 30 minutes, and endogenous alkaline phosphatase activity is inactivated. Added further is 20 μl of buffer containing L-homoarginine that is an inhibitor of endogenous alkaline phosphatase, and the resultant is kept standing for 5 minutes. Then, 15 μl of substrate CSPD is added thereto, the resultant is kept standing at a dark place for 30 minutes, and the degree of chemical emission is measured by a luminometer.

[2] = test system: aryl hydrocarbon receptor (AhR); test: SEAP reporter plasmid comparison of sensor sequences (DRE, MMTV-DRE, MMTV) in Hepa-1c1c7 cells stimulated by TCDD
Description: SEAP reporter plasmids having MMTV-DRE or only DRE as a sensor sequence were prepared, and each of the plasmids was gene-introduced to a Hepa-1c1c7 cell. In addition, details of gene introduction will be described later. The cells were stimulated by TCDD, and increases in SEAP activity were compared. In the cell to which was introduced the SEAP reporter plasmid only having DRE as a sensor sequence, the SEAP activity increased by 4.5 times by the stimulus of TCDD.
In contrast thereto, in the cell (Hepa 1c1c7-DRE-SEAP cell, hereinafter, referred to as an HeDS cell) to which was introduced the SEAP reporter plasmid having MMTV-DRE as a sensor sequence, the SEAP activity increased by 43.2 times by the stimulus of TCDD. […] This means that the sequence of MMTV strongly amplifies the response of DRE to dioxin. The high reactivity of MMTV-DRE enables a fast assay with low cost.
as §1

[3] = test system: aryl hydrocarbon receptor (AhR); test: fast DRESSA method: floating HeDS cells, SEAP protein activity in conditioned medium
Description: as §1
In order to perform the above-mentioned DRESSA method easily and economically in a short time, it is possible to simplify the sensing procedures as described above, as shown in FIG. 1a. In other words, 50 μl of the culture medium containing 1 μl of sample is filled into each well of a 96-well culture plate, and immediately, HeDS cells floated in the culture medium are added (total 100 μl) (S1).
The conditioned medium is sampled three to four hours later (S2), and the SEAP protein activity is measured (S3). By using this scheme, it is possible to sense 1 pM of TCDD regarded as the sensing limit of the current method within four to five hours. Hereinafter, this method is referred to as a fast DRESSA method. The fast DRESSA method has no difference in sensing sensitivity from the DRESSA method.

Cc1ccc2cc3c(ccc4ccccc43)c3c2c1CC3 [3-MC, 3-methylcholanthrene]
induction of SEAP protein activity compared with DMSO control [1]: remarkable induction

c1ccc2c(c1)cc1ccc3cccc4ccc2c1c34 [B[a]P, benzo[a]pyrene]
induction of SEAP protein activity compared with DMSO control [1]: remarkable induction

Clc1cc2c(cc1Cl)Oc1cc(Cl)c(Cl)cc1O2 [TCDD, 2,3,7,8-tetrachlorodibenzo-p-dioxin]
increase in SEAP activity by the stimulus of TCDD ([2]; HeDS cell: SEAP reporter plasmid having MMTV-DRE as sensor sequence): 43.2 times | increase in SEAP activity by the stimulus of TCDD ([2]; Hepa-1c1c7 cell with SEAP reporter plasmid only having DRE as sensor sequence): 4.5 times | increase in SEAP activity by the stimulus of TCDD ([2]; cell with SEAP reporter plasmid only having MMTV as sensor sequence): did not increase | time after addition at which significant increases in SEAP protein activity are observed ([1]; 6 pM TCDD, DMSO control, traced up to 10 hours): four | sensing with a reduced number of cells ([1]; 1 nM TCDD, 50 cells in one well of a 96-well plate): can be sensed sufficiently | concentration of TCDD possible to sense ([1]; 5,000 HeDS cells): 0.5 pM | concentration at which significant increases in SEAP protein activity were already observed ([1]; HeDS cells exposed to 0 to 1 pM TCDD): 0.25 pM | concentration up to which SEAP protein activity increases dependent on the concentration ([1]; HeDS cells, culture medium): up to 100 pM | time for which increases in SEAP protein activity continued before reaching equilibrium ([1]; TCDD stimulation, traced up to 72 hours): 48 h | time after addition at which significant increases in SEAP protein activity were already observed ([3]; 6 pM TCDD): three | time after addition at which significant increases in SEAP protein activity were already observed ([3]; 1 nM TCDD): three | concentration of TCDD possible to sense ([3]; within four to five hours): 1 pM

O=c1cc(-c2ccccc2)oc2ccc3ccccc3c12 [βNF, β-naphthoflavone]
induction of SEAP protein activity compared with DMSO control [1]: remarkable induction
